Data as given in patent US5225417A, “Opioid agonist compounds” (priority 1992, dated 1993).
Counter-ions that a name gives are not always drawn.

Key:
μ opioid receptor = μ opioid receptor (Rattus norvegicus, UniProt P33535); test: Opiate Binding Assay, μ receptor (3[H]-DAMGO displacement)
δ opioid receptor = δ opioid receptor (Rattus norvegicus, UniProt P33533); test: Opiate Binding Assay, δ receptor (3[H]-DSLET displacement)
mice or rats [1] = test: Tail Flick Assay; type: in vivo; conditions: for Tail flick activity, intracerebroventricular / active dose in tail flick, intracerebroventricularly: intracerebroventricular
Description: The "Tail Flick Assay" uses thermal pain of transient duration, and is a test in which the pain threshold of the mice or rats being analyzed has not been altered. It is useful for evaluating the ability of a compound or drug to increase the animal's pain threshold (i.e. prolong response latencies), rather than to restore normal thresholds.
The heat-induced response to the Tail Flick Assay is a reflex reaction mediated at the level of the spinal cord.
Opiate compounds having clinical efficacy as analgesics generally increase tail flick latencies. Thus, morphine and codeine are generally determined to be active in this test.
The Tail Flick Assay was performed generally in the manner described by G. Woolfe et al., "The Evaluation of the Analgesic Action of Pethidine Hydrochloride (Demerol)," J. Pharmacol. Exp. Ther., 80, 300, (1944), F. D'Amour et al., "A Method for Determining Loss of Pain Sensation," J. Pharmacol. Exp. Ther., 72, 74, 300-307 (1941), and E. Drower et al., "The Antinociceptive Effects of Prostaglandin Antagonists in the Rat," European Journal of Pharmacology, 133, 249-256 (1987).
Male Charles River albino mice and male Charles River Sprague-Dawley rats weighing 20 to 30 g and 200 to 250 g, respectively, was employed in this assay.
Tail flick response latencies (defined as the time that elapsed between the onset of a high intensity beam of light and the reflex removal of the mouse or rat's tail) was measured before (baseline) and again at fixed intervals after subcutaneous or intracerebro-ventricular administration of one of the compounds of the invention, or after the administration of saline (controls). The cut-off latencies established to prevent tissue damage in the animals are 12 seconds or 14 seconds in the mouse and rat, respectively, in the Tail Flick Assay. The significance of any increase in tail flick response latency is determined using analyses of variance.
One way analyses of variance were used to determine the significance of the effect of the compounds of the invention on response latencies.
"Activity" or "Inactivity" was determined at a particular concentration of the compound by a significant increase in tail flick latency above normal latencies.
The numbers in parentheses are calculated ED50 values.

mice or rats [2] = conditions: background statement; cited from earlier work

δ opioid receptor, sequence (P33533 whole entry): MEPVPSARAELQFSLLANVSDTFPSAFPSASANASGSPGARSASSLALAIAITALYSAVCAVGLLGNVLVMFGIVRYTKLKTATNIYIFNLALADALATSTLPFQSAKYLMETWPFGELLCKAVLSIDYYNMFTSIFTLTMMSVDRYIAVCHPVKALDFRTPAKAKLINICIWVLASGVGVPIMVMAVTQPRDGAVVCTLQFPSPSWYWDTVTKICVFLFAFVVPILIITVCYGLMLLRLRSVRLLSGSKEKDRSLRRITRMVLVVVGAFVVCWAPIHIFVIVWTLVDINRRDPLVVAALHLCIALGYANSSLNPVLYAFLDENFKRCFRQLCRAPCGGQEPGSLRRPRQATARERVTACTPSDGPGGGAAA
μ opioid receptor, sequence (P33535 whole entry): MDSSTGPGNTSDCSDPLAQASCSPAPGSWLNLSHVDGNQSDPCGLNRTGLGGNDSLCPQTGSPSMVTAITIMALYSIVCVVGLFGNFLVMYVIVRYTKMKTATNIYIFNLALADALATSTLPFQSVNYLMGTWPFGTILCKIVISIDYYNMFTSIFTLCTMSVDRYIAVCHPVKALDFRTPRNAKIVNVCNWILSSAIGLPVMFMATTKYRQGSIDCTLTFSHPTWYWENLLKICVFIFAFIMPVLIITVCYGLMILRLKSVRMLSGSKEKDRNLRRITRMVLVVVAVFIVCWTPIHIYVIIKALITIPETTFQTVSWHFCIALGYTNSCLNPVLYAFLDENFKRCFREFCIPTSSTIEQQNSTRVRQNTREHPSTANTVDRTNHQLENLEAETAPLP

CO[C@@]12Cc3c(oc4ccccc34)[C@@H]3Oc4c(O)ccc5c4[C@@]31CCN(C)[C@@H]2C5 (relative stereo) [Example IX, 6,7,8,8a,9,14b-hexahydro-8aβ-methoxy-7-methyl-4,8(R,α)-methano-4bS*-5H-bisbenzofuro [3,2-e:2',3'-g]isoquinolin-1-ol, monohydrochloride]
IC50 (μ opioid receptor): 430 nM | IC50 (δ opioid receptor): 1 nM | Mean IC50 μ/δ Ratio (δ opioid receptor; ratio of mean IC50 values for μ and δ opioid receptors): 430 | Tail flick activity, intracerebroventricular (mice or rats [1]): 10.5 nmol | active dose in tail flick, intracerebroventricularly (mice or rats [1]): ca. 10 nmoles | Tail flick activity, subcutaneous (active at) (mice or rats [1]): > 30 mpk

Oc1ccc2c3c1O[C@H]1c4oc5ccccc5c4C[C@@]4(O)[C@@H](C2)N(Cc2ncc[nH]2)CC[C@]314 (relative stereo) [Example XV, 5,6,7,8,14,14bβ-Hexahydro-(1H-imidazol-2-ylmethyl)-4,8(R,α)-methano-4bS*-benzofuro[2,3-a]pyrido [4,3-b]carbazole-1,8aβ(9H)-diol, hydrochloride]
Mean IC50 Value, μ (μ opioid receptor; rat forebrain membranes, 3[H]-DAMGO 2.0 nM, 37° C., pH 7.4): inactive | IC50 (δ opioid receptor): 79.2 nM | Tail flick activity, intracerebroventricular (mice or rats [1]): ~ 10 nmoles | active dose in tail flick, intracerebroventricularly (mice or rats [1]): ca. 10 nmoles | Tail flick activity, subcutaneous (active at) (mice or rats [1]): inactive

Cc1cc(CC(=O)O)n(C)c1C(=O)c1ccc(Cl)cc1 [Zomax]
activity in tail flick test (general knowledge) (mice or rats [2]): little activity

CC(=O)Oc1ccccc1C(=O)O [aspirin]
activity in tail flick test (general knowledge) (mice or rats [2]): little activity

COc1ccc2c3c1O[C@H]1[C@@H](O)C=C[C@H]4[C@@H](C2)N(C)CC[C@@]341 [codeine]
activity in tail flick test (general knowledge) (mice or rats [2]): active

CN1CC[C@]23c4c5ccc(O)c4O[C@H]2[C@@H](O)C=C[C@H]3[C@H]1C5 [morphine]
activity in tail flick test (general knowledge) (mice or rats [2]): active
